Test results from ChEMBL document CHEMBL5465560, “Selectivity Literature for EUbOPEN Chemogenomic Library” (2024).
Each block holds one molecule with its values, some of them ahead of it.

Legend:
[1] = molecular target: Citron Rho-interacting kinase (Homo sapiens) (UniProt O14578); assay: Selectivity interaction (Ambit KINOMEscan and KiNATiv profiling in Jurkat cells) EUB0000090b CIT; type: cell-based; settings: at 1 µM
[2] = molecular target: MAP/microtubule affinity-regulating kinase 3 (Homo sapiens) (UniProt P27448); assay: Selectivity interaction (KinomeScan (DiscoverX)) EUB0000655a MARK3; settings: at 10 µM
Sequence of MAP/microtubule affinity-regulating kinase 3 (Homo sapiens) (P27448 whole entry, looked up): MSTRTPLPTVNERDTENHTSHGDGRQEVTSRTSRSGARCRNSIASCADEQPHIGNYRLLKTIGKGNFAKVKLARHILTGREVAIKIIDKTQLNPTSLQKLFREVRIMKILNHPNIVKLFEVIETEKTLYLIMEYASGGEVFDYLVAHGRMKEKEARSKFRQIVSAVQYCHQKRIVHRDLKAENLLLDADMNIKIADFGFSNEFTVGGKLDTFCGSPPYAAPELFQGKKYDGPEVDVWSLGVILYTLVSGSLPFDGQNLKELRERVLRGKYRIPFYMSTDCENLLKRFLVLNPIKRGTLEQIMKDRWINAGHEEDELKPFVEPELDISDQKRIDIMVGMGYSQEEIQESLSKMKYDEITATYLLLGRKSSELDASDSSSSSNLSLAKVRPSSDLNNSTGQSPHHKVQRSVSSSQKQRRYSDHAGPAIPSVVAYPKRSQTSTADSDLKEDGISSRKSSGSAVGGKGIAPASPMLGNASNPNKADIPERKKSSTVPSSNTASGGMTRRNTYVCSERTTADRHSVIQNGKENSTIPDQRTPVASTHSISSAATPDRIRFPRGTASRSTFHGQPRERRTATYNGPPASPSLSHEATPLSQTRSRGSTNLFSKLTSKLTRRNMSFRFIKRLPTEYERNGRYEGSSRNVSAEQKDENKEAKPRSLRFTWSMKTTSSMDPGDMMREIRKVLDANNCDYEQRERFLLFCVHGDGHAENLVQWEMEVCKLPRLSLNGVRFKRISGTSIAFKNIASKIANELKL

[3] = molecular target: Tyrosine-protein kinase JAK2 (Homo sapiens, UniProt O60674); assay: Selectivity interaction (KinomeScan (DiscoverX)) EUB0000618a JAK2; settings: at 10 µM
Sequence of Tyrosine-protein kinase JAK2 (O60674 whole entry): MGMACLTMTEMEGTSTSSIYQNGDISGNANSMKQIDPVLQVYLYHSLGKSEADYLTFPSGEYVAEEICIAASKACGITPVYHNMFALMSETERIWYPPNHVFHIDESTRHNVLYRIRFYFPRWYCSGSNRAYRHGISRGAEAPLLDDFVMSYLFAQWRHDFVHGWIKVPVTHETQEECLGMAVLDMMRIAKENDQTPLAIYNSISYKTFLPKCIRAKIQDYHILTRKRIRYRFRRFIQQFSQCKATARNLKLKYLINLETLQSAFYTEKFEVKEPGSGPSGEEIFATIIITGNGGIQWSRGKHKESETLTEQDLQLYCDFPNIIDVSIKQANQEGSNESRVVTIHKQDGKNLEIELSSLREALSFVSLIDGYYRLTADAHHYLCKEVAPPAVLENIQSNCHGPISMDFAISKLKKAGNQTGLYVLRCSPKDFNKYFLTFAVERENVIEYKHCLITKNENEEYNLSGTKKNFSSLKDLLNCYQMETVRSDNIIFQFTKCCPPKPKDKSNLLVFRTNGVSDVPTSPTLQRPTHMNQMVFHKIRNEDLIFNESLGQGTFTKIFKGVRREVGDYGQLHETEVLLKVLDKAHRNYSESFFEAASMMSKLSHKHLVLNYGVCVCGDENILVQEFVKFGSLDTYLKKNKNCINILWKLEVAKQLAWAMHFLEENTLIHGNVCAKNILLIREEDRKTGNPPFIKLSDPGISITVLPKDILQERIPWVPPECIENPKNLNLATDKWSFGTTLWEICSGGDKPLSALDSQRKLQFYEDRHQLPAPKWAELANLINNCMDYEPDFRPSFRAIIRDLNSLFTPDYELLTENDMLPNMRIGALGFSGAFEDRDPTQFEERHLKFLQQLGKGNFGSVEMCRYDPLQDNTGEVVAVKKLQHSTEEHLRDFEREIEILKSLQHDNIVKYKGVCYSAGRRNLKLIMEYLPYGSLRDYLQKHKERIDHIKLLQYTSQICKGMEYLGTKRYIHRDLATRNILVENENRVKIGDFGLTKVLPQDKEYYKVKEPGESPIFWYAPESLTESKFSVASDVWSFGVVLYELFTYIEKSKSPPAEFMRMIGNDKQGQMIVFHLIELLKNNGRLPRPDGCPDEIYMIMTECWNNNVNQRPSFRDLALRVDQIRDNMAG

[4] = molecular target: T1, Phosphatidylinositol 5-phosphate 4-kinase type-2 gamma (Homo sapiens) (UniProt Q8TBX8); assay: Selectivity interaction (Kinase panel (KiNativ target engagement assay in Jurkat cells)) EUB0001635a PIP4K2C; type: cell-based; settings: Selectivity number of off-targets 0.0, Selectivity number of targets 233.0, Source Knowledge https://www.sciencedirect.com/science/article/pii/S2451945619300674?via%3Dihub, at 1 µM
T1 sequence (whole entry): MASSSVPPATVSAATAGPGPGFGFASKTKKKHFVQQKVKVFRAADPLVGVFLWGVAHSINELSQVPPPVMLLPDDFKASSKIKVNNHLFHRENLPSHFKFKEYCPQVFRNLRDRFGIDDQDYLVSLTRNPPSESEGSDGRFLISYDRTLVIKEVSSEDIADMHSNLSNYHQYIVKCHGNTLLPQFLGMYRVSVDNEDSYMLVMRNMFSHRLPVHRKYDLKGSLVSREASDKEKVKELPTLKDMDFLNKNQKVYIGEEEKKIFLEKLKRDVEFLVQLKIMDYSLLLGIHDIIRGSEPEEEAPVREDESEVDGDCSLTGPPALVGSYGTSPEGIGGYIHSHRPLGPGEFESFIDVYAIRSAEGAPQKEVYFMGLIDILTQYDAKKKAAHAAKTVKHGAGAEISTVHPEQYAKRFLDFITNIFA

[5] = molecular target: Dual specificity mitogen-activated protein kinase kinase 1 (Homo sapiens, UniProt Q02750); assay: Selectivity interaction (ActivX KiNativ screen (kinase selectivity in THP-1 cell lysates)) EUB0000639a MAP2K1; type: subcellular; settings: lysate, at 5 µM
Sequence of Dual specificity mitogen-activated protein kinase kinase 1 (Q02750 whole entry): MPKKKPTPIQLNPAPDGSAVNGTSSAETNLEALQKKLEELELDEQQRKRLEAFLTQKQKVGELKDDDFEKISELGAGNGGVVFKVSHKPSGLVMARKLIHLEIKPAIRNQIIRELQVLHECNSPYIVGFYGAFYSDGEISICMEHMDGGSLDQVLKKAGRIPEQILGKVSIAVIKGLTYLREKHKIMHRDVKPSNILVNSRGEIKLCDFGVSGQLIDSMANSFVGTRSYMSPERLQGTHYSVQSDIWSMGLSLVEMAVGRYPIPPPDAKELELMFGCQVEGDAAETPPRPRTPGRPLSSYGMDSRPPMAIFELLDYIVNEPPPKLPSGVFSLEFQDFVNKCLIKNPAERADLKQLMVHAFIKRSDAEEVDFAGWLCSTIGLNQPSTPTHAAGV

[6] = molecular target: T2, Serine/threonine-protein kinase TAO1 (Homo sapiens) (UniProt Q7L7X3); assay: Selectivity interaction (ActivX KiNativ screen (kinase selectivity in THP-1 cell lysates)) EUB0000639a TAOK1; type: subcellular; settings: lysate
T2 sequence (whole entry): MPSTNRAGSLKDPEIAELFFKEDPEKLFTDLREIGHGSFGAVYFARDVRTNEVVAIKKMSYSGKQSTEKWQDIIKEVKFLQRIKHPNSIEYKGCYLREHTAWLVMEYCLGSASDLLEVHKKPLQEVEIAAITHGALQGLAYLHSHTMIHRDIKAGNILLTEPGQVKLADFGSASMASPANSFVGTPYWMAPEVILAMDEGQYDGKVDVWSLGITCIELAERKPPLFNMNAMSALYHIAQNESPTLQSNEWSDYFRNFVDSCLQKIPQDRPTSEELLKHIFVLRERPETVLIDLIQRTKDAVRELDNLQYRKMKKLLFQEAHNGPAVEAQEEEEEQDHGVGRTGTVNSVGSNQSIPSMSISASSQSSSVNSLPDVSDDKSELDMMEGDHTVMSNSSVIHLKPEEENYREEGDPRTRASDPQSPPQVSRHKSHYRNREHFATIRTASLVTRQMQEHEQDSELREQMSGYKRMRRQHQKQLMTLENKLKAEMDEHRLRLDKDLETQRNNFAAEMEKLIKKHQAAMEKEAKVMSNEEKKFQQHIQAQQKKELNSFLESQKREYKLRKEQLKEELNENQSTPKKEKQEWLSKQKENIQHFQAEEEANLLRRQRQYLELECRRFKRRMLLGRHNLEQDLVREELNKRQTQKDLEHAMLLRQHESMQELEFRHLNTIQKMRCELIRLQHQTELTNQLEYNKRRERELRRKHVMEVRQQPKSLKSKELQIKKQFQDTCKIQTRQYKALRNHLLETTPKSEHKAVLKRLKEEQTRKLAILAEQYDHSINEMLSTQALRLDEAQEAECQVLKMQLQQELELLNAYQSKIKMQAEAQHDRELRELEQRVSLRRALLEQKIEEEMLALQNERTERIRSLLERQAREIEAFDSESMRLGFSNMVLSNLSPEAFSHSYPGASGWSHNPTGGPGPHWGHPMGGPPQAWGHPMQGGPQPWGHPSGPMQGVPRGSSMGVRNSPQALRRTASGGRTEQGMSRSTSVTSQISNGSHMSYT

[7] = molecular target: T3, Serine/threonine-protein kinase RIO1 (Homo sapiens) (UniProt Q9BRS2); assay: Selectivity interaction (KinomeScan (DiscoverX)) EUB0000666a RIOK1; settings: at 10 µM
T3 sequence (whole entry): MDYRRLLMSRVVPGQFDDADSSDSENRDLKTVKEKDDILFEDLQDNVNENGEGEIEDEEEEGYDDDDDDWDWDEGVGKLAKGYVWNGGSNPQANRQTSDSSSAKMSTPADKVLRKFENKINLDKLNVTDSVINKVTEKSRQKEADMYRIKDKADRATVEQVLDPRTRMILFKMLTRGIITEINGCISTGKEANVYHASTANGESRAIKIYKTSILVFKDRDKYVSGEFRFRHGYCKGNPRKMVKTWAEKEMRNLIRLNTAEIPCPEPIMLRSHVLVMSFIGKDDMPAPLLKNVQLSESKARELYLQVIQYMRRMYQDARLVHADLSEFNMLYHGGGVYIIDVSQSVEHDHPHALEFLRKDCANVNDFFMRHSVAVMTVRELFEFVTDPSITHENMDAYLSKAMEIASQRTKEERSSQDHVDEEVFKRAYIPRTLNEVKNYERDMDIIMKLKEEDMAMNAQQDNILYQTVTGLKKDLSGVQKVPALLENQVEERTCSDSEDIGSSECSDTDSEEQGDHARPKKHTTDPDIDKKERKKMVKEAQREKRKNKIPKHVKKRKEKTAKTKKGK

Sequence of Citron Rho-interacting kinase (Homo sapiens) (O14578 whole entry): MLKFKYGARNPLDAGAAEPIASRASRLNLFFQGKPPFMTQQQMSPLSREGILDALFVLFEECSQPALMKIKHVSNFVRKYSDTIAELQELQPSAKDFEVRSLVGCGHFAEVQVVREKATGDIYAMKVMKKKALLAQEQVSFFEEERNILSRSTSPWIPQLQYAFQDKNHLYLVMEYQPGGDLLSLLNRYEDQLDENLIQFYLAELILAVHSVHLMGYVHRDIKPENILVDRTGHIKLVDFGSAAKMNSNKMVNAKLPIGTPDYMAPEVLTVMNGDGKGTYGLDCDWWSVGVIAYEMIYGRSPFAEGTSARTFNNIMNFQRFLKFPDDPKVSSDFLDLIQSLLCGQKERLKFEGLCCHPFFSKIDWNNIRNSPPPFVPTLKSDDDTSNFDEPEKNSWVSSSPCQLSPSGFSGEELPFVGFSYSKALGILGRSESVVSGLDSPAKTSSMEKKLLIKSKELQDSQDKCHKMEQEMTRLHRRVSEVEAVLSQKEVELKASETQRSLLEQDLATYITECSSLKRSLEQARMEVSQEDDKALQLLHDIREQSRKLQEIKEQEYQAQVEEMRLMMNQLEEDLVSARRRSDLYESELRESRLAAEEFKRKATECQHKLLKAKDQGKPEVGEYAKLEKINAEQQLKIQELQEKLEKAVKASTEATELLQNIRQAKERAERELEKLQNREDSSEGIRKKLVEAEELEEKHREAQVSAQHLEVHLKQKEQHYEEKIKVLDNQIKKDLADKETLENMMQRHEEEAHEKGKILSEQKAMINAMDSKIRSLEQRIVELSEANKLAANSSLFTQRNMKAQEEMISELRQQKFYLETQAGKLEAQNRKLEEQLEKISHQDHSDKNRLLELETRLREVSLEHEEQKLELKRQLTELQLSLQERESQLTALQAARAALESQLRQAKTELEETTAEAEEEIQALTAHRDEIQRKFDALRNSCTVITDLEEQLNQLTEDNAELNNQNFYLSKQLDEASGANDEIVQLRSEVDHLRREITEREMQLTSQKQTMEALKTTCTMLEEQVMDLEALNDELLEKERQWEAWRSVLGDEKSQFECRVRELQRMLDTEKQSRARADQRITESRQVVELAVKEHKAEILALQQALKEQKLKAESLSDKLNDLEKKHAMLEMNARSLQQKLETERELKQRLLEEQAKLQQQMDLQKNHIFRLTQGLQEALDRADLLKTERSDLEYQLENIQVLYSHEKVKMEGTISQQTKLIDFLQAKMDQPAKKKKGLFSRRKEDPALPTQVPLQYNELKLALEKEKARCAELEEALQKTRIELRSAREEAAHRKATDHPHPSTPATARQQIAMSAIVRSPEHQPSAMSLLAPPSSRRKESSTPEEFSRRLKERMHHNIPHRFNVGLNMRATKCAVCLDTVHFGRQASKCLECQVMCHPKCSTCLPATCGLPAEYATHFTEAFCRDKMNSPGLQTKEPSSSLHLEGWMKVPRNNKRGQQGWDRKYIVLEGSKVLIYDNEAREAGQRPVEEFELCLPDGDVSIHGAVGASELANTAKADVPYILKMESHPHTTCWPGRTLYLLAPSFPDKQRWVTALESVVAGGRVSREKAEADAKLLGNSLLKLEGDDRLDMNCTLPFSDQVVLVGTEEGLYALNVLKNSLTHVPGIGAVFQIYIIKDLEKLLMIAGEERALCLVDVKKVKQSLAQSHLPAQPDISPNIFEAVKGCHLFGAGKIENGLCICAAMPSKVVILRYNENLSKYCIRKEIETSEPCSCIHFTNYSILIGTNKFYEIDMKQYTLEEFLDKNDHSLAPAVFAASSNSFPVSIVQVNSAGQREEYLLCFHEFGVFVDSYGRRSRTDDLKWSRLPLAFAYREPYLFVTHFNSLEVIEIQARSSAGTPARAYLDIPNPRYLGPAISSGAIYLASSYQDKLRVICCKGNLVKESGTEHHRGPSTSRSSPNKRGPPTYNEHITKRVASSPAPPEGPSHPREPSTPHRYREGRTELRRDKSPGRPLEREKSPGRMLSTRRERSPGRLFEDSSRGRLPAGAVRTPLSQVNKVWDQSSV

Compound: CN(C)C/C=C/C(=O)Nc1ccc(C(=O)N2CCCC(Nc3ncc(Cl)c(-c4c[nH]c5ccccc45)n3)C2)cc1 (stereo unspecified)
% of control [1]: 83%

Compound: CN(C)CCOc1ccc(-c2nc(-c3ccncc3)c(-c3ccc4c(c3)CC/C4=N\O)[nH]2)cc1
% of control [2]: 95%

Compound: O[C@H]1CC[C@H](Nc2ncc3nc(Nc4c(F)cc(F)cc4F)n([C@H]4CCOC4)c3n2)CC1
% of control [3]: 97%

Compound: C=CC(=O)Nc1ccc(C(=O)Nc2[nH]nc3c2CN(C(=O)N[C@H](CN(C)C)c2ccccc2)C3(C)C)cc1
% of engagement [4]: -2.5%

% of inhibition [5]: 20.8%
% of inhibition ([6]; at 0.01 µM): 6.6%
% of inhibition ([6]; at 0.04 µM): -1.6%
% of inhibition ([6]; at 0.2 µM): 6.9%
% of inhibition ([6]; at 1 µM): 12.9%
% of inhibition ([6]; at 5 µM): 41.7%
Compound: CC[C@@H]1[C@H](F)C(=O)N[C@@H]1COc1nccc2cc(C(N)=O)c(OC)cc12 [ZIMLOVISERTIB]

Compound: O=C(NOC[C@H](O)CO)c1ccc(F)c(F)c1Nc1ccc(I)cc1F
% of control [7]: 95%
